Measured values published in ChEMBL document CHEMBL2157966, “Elevation of cellular O-GlcNAcylation level by a potent and selective O-GlcNAcase inhibitor based on tetrahydroimidazopyridine scaffold” (Bioorg Med Chem Lett, 2012).
Active and inactive are the calls of the source. The calls are words filed in the database; no cut-off is given here.

Columns and labels:
[1] = molecular target: T1, Protein O-GlcNAcase (Homo sapiens) (UniProt O60502); assay: Inhibition of human OGA at 100 uM
T1 sequence (whole entry): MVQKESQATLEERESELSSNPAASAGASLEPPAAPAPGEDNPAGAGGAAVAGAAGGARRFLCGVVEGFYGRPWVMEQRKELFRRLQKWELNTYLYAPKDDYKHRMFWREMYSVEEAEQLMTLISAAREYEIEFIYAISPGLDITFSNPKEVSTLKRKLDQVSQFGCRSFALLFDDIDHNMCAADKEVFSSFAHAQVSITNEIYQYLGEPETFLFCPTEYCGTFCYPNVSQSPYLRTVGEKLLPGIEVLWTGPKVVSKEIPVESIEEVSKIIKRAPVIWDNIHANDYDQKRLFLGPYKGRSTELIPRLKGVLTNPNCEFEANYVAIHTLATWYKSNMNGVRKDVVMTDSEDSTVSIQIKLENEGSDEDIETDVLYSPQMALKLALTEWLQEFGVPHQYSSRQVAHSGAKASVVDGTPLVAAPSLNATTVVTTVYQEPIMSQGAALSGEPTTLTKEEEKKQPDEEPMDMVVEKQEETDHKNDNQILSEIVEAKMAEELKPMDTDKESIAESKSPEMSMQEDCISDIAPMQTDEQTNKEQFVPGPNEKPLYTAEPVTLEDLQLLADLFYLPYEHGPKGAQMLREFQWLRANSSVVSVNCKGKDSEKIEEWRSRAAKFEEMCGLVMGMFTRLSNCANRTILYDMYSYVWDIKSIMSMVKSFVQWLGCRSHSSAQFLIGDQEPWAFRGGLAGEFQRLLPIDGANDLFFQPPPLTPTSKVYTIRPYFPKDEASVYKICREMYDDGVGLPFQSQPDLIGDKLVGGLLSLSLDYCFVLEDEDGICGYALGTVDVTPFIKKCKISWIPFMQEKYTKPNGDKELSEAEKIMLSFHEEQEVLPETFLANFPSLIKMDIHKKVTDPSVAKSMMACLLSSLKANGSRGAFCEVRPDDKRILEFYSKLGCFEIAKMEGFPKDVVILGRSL

Protein O-GlcNAcase = molecular target: T2, Protein O-GlcNAcase (Homo sapiens, UniProt O60502); assay: Competitive inhibition of human OGA using 4-MU-GlcNAc as substrate after 10 mins by Lineweaver Burk plot analysis
T2 sequence (O60502 whole entry): T1 sequence (whole entry)

[2] = molecular target: T1, Protein O-GlcNAcase (Homo sapiens); assay: Inhibition of OGA in human SH-SY5Y cells assessed as increase in protein O-GlcNAcylation level after 24 hrs by Western blot analysis; assay type: cell-based
[3] = molecular target: T1, Protein O-GlcNAcase (Homo sapiens); assay: Inhibition of OGA in human SH-SY5Y cells assessed as increase in protein O-GlcNAcylation level at 10 uM after 24 hrs by Western blot analysis; assay type: cell-based
[4] = molecular target: T3, Beta-hexosaminidase subunit alpha (Homo sapiens, UniProt P06865); assay: Inhibition of human Hex A using 4-MU-GlcNAc as substrate after 10 mins by Lineweaver Burk plot analysis
T3 sequence (P06865 whole entry): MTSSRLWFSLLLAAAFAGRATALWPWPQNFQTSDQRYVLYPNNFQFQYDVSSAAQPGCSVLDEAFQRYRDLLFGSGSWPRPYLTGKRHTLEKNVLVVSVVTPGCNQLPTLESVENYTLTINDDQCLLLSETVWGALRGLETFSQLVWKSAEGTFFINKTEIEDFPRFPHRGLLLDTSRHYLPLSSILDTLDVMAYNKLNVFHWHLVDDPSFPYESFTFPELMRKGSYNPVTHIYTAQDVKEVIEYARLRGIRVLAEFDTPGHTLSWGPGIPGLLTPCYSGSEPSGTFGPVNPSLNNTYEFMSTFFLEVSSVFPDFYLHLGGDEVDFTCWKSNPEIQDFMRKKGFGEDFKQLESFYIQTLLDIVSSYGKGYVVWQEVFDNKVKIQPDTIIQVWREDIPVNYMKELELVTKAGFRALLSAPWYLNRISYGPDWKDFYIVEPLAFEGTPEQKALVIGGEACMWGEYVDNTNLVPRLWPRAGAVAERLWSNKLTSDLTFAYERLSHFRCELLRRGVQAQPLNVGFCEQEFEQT

inhibition [1] [%] | SMILES | also measured
17.1 | O=C(CCc1cn2c(n1)[C@H](O)[C@@H](O)[C@H](O)[C@H]2CO)Nc1ccccc1 | 
84.8 | OC[C@@H]1[C@@H](O)[C@H](O)[C@@H](O)c2nc(CCc3ccc(-c4ccccc4)cc3)cn21 | Ki (Protein O-GlcNAcase): 5.9 µM; inhibition [2]: Dose-dependent effect; inhibition [3]: Active; Ki [4]: 163 µM
2.2 | CC(C)(CCc1cn2c(n1)[C@H](O)[C@@H](O)[C@H](O)[C@H]2CO)C(=O)Nc1ccccc1 | 
0.4 | CC(C)(C)CCc1cn2c(n1)[C@H](O)[C@@H](O)[C@H](O)[C@H]2CO | 
56.6 | OC[C@@H]1[C@@H](O)[C@H](O)[C@@H](O)c2nc(CCc3ccc(C4CCCCC4)cc3)cn21 | 
28.3 | Cc1ccc(CCc2cn3c(n2)[C@H](O)[C@@H](O)[C@H](O)[C@H]3CO)cc1 | 
15.3 | CCCCCCCCc1cn2c(n1)[C@H](O)[C@@H](O)[C@H](O)[C@H]2CO | 
6.8 | OC[C@@H]1[C@@H](O)[C@H](O)[C@@H](O)c2nc(CCc3ccccc3)cn21 | 
54.1 | COc1ccc(CCc2cn3c(n2)[C@H](O)[C@@H](O)[C@H](O)[C@H]3CO)cc1 | 
26.1 | OC[C@@H]1[C@@H](O)[C@H](O)[C@@H](O)c2nc(CCc3ccc(F)cc3)cn21 | 

SMILES | inhibition [1] [%] | also measured
OC[C@@H]1[C@@H](O)[C@H](O)[C@@H](O)c2nccn21 | 6.2 | 
